{"source": "paper PMC8632988", "about": "“Inhibition of SYK and cSrc kinases can protect bone and cartilage in preclinical models of osteoarthritis and rheumatoid arthritis” (Scientific Reports, 2021)", "key": {"human osteoclasts": {"tested_on": "human osteoclasts", "experiment": "Osteoclast-mediated resorption of the mineralized matrix", "format": "cell-based", "set-up": "Ratio %: unit not given here", "settings": "for Ratio %: vehicle average = 1.000", "protocol": "The experiment was performed at Atlantic Bone Screen (France) and approved by Atlantic Bone Screen ethics committee. Human CD14 + monocytes were isolated from peripheral blood of healthy volunteers (informed consent was obtained from all subjects) using density gradient centrifugation (Ficoll-Hypaque) and magnetic cell sorting (MACS, MiltenyiBiotec). CD14 + monocytes (1.5 × 10^6 cells/well) were cultured for three days in proliferation medium (αMEM/FCS-10% supplemented with 25 ng/mL M-CSF), inducing proliferation and expression of RANK. Secondly, the cells were differentiated into osteoclasts in differentiation medium supplemented with 100 ng/mL RANKL for 4 days. Osteoclasts were detached from the wells using accutase, the cell suspension was homogenized and cells (75 μL/well) were reseeded into: (a) a 96-well plate coated with a synthetic mineralized matrix for an evaluation of osteoclast resorption, or (b) a classic 96-well plastic culture plate, for an assessment of osteoclast number. 75 μL of differentiation medium containing M-CSF and RANKL (at a 2 × concentration) was added to each well. The cells were incubated for an hour and were cultured for 48 h in the fresh differentiation medium supplemented with MT-SYK-03 or vehicle (DMSO, 0.3%). All treatments were carried out in quadruple. Then the cell medium was removed, cells were lysed and the surface of the resorbed areas of the mineralized matrix was quantified in each well. TRAP staining was performed for cells in a classic plastic plate and the number of mature osteoclasts (TRAP-positive cells with three or more nuclei) was determined in each well. Reconstruction of images and osteoclast count was performed using Nikon NIS-D software."}, "rat primary chondrocytes": {"tested_on": "rat primary chondrocytes", "experiment": "Hypertrophic-like changes in IL-1β treated primary chondrocytes", "format": "cell-based", "settings": "for Relative fold expression, aggrecan / Relative fold expression, type II collagen: control = 1", "protocol": "The experiment was performed at Atlantic Bone Screen, France. To isolate primary chondrocytes, Sprague Dawley 3 weeks old rats were euthanized and their hind limbs were collected. Knee cartilage shavings were digested with collagenase in serum-free Dulbecco’s Modified Eagle’s Medium (DMEM). Once digested, the cell suspension was centrifuged and resuspended in DMEM containing 10% fetal bovine serum (FBS). Then the cells were plated on tissue culture plastic at a density of 10 000 cells∙cm^−2 and were amplified in monolayer in culture medium (DMEM/FCS-10% supplemented with HEPES (25 mM)) until passage 1 and frozen at − 80 °C. Before study rat’s chondrocytes were seeded and cultured in monolayers in 12-well plates for 24 h. After that the cells were treated for three days with IL-1β (10 ng/mL) and MT-SYK-03; […] and vehicle (DMSO, 0.3% in cell medium) controls were also carried out in triplicate. At the end of the treatment, chondrocytes were lysed, and total RNA was purified using the NucleoSpin RNA II kit (Macherey Nagel). Total RNAs (2 μg) were retro-transcribed using M-MLV RT (Lifetechnologies) and obtained cDNAs (10 ng) were used for qPCR to determine steady-state levels of type II collagen and aggrecan mRNAs (levels of RPL19 and β-actin mRNAs were used as controls). Each reaction was set up as follows: 5 μL of iQ SYBR Green Supermix (Biorad, ref 1,708,882), 0.6 μL of forward primer (5 μM), and 0.6 μL of reverse primer (5 μM), 1.8 μL H2O, and 2 μL of cDNA. All qPCRs (72 qPCRs per marker) were run on a DNA Engine Thermal Cycler Chromo 4 in triplicates and analyzed using REST software."}, "SYK": {"biological_target": "SYK (Homo sapiens, UniProt P43405)", "experiment": "SYK inhibition radiometric assay", "format": "biochemical", "set-up": "6xHis; GST; purchased EMD Millipore Corporation (UK), assay service; host or cells: Sf21", "protocol": "Radiometric assay was performed at EMD Millipore Corporation (UK) by measuring the extent of substrate phosphorylation by 6xHis-SYK (expressed in Sf21 cells) using the standard protocol."}, "[1]": {"settings": "MT-SYK-03 0.12 μM, individual wells"}, "[2]": {"settings": "MT-SYK-03 0.37 μM, individual wells"}, "[3]": {"settings": "MT-SYK-03 3.3 μM, individual wells"}, "[4]": {"settings": "MT-SYK-03 10 μM, individual wells"}}, "note": "“And” between values parts separate entries of the source, which are not always exact repeats. Equal entries are not always repeated."}
{"smiles": "COc1cc(Nc2ncnc(Nc3cc4c(cn3)NC(=O)C(C)(C)O4)n2)cc(OC)c1OC", "note": "[MT-SYK-03]", "values": [{"measurement": "Relative resorbed surface", "setting": "human osteoclasts; 10 μM, 48 h, versus vehicle control", "result": "more than threefold"}, {"measurement": "Ratio resorption/Nb OC", "setting": "human osteoclasts; MT-SYK-03 0.12 μM, Average", "result": 0.079}, {"measurement": "Resorption, % resorption", "setting": "human osteoclasts; MT-SYK-03 0.12 μM, Average", "result": 31.78, "unit": "%"}, {"measurement": "TRAP, Number of osteoclasts (Nb OC)", "setting": "human osteoclasts; MT-SYK-03 0.12 μM, Average", "result": 405}, {"measurement": "Ratio %", "setting": "human osteoclasts; MT-SYK-03 0.12 μM, Average", "result": 1.001}, {"measurement": "Ratio resorption/Nb OC", "setting": "human osteoclasts; [1]", "result": "0.088 and 0.075 and 0.085 and 0.067"}, {"measurement": "Resorption, % resorption", "setting": "human osteoclasts; [1]", "result": "34.41% and 30.62% and 34.06% and 28.02%"}, {"measurement": "TRAP, Number of osteoclasts (Nb OC)", "setting": "human osteoclasts; [1]", "result": "389 and 408 and 402 and 419"}, {"measurement": "Ratio resorption/Nb OC", "setting": "human osteoclasts; MT-SYK-03 0.37 μM, Average", "result": 0.062}, {"measurement": "Resorption, % resorption", "setting": "human osteoclasts; MT-SYK-03 0.37 μM, Average", "result": 26.43, "unit": "%"}, {"measurement": "TRAP, Number of osteoclasts (Nb OC)", "setting": "human osteoclasts; MT-SYK-03 0.37 μM, Average", "result": 422}, {"measurement": "Ratio %", "setting": "human osteoclasts; MT-SYK-03 0.37 μM, Average", "result": 0.789}, {"measurement": "Ratio resorption/Nb OC", "setting": "human osteoclasts; [2]", "result": "0.084 and 0.065 and 0.069 and 0.031"}, {"measurement": "Resorption, % resorption", "setting": "human osteoclasts; [2]", "result": "33.11% and 27.51% and 32.94% and 12.15%"}, {"measurement": "TRAP, Number of osteoclasts (Nb OC)", "setting": "human osteoclasts; [2]", "result": "394 and 426 and 478 and 391"}, {"measurement": "Ratio resorption/Nb OC", "setting": "human osteoclasts; MT-SYK-03 3.3 μM, Average", "result": 0.015}, {"measurement": "Resorption, % resorption", "setting": "human osteoclasts; MT-SYK-03 3.3 μM, Average", "result": 2.81, "unit": "%"}, {"measurement": "TRAP, Number of osteoclasts (Nb OC)", "setting": "human osteoclasts; MT-SYK-03 3.3 μM, Average", "result": 196}, {"measurement": "Ratio %", "setting": "human osteoclasts; MT-SYK-03 3.3 μM, Average", "result": 0.197}, {"measurement": "Ratio resorption/Nb OC", "setting": "human osteoclasts; [3]", "result": "0.014 and 0.025 and 0.011 and 0.012"}, {"measurement": "Resorption, % resorption", "setting": "human osteoclasts; [3]", "result": "2.31% and 3.40% and 2.62% and 2.91%"}, {"measurement": "TRAP, Number of osteoclasts (Nb OC)", "setting": "human osteoclasts; [3]", "result": "165 and 136 and 247 and 235"}, {"measurement": "Ratio resorption/Nb OC", "setting": "human osteoclasts; MT-SYK-03 10 μM, Average", "result": 0.004}, {"measurement": "Resorption, % resorption", "setting": "human osteoclasts; MT-SYK-03 10 μM, Average", "result": 1.53, "unit": "%"}, {"measurement": "TRAP, Number of osteoclasts (Nb OC)", "setting": "human osteoclasts; MT-SYK-03 10 μM, Average", "result": 8}, {"measurement": "Ratio %", "setting": "human osteoclasts; MT-SYK-03 10 μM, Average", "result": 0.044}, {"measurement": "Ratio resorption/Nb OC", "setting": "human osteoclasts; [4]", "result": "0.016 and 0.024 and 0.023 and 0.028"}, {"measurement": "Resorption, % resorption", "setting": "human osteoclasts; [4]", "result": "5.87% and 9.73% and 8.76% and 11.00% and 8.84%"}, {"measurement": "TRAP, Number of osteoclasts (Nb OC)", "setting": "human osteoclasts; [4]", "result": "371 and 402 and 388 and 390"}, {"measurement": "Aggrecan gene expression", "setting": "rat primary chondrocytes; IL-1β 10 ng/mL, three days", "result": "increased"}, {"measurement": "Type II collagen gene expression", "setting": "rat primary chondrocytes; IL-1β 10 ng/mL, three days", "result": "increased"}, {"measurement": "Relative fold expression, aggrecan", "setting": "rat primary chondrocytes; IL-1β + MT-SYK-03 0.4 μM", "result": 0.20}, {"measurement": "Relative fold expression, type II collagen", "setting": "rat primary chondrocytes; IL-1β + MT-SYK-03 0.4 μM", "result": 0.12}, {"measurement": "Relative fold expression, aggrecan", "setting": "rat primary chondrocytes; IL-1β + MT-SYK-03 2 μM", "result": 0.42}, {"measurement": "Relative fold expression, type II collagen", "setting": "rat primary chondrocytes; IL-1β + MT-SYK-03 2 μM", "result": 0.12}, {"measurement": "Relative fold expression, aggrecan", "setting": "rat primary chondrocytes; IL-1β + MT-SYK-03 10 μM", "result": 0.46}, {"measurement": "Relative fold expression, type II collagen", "setting": "rat primary chondrocytes; IL-1β + MT-SYK-03 10 μM", "result": 0.09}, {"measurement": "IC50", "setting": "SYK", "result": "0.04 ± 0.004", "unit": "µM"}]}
